Where only a bound is given, the exact number is not on record here.

We go through 2 molecules from US20260365692A1, “COMPOSITIONS COMPRISING PROTEINS DISSOLVED IN FLUORINATED SOLVENTS, AND METHODS OF MAKING AND USING THE SAME” (priority 2022, published 2026).

Series [1] deals with β-gal. Description: Circular dichroism with PFNA, β-gal. Particulars: 0.001-1 mM PFNA. The text has this: (§1) FIGS. 14A-14L depict circular dichroism spectra of Hb (FIG. 14A), GFP (FIG. 14B), BSA (FIG. 14C), β-Gal (FIG. 14D), rabbit serum IgG (FIG. 14E), transferrin (FIG. 14F), and urease (FIG. 14G) in the absence (black line) or presence (dashed lines) of PFNA. Increasing dash sequence indicated higher concentration of PFNA. FIG. 14H: Change in molar ellipticity at 216 nm (Δθ216) of PFNA-treated proteins, relative to native controls, as a function of increasing ligand concentration. FIG. 14I: Percentage change in secondary structural motifs of Hb, β-Gal and IgG between the native protein and 1 mM PFNA treated samples. β-sheet structures were further differentiated into parallel and antiparallel conformations. Hb, β-Gal and IgG were prioritized for analysis based on their significant spectral shift in the presence of 1 mM PFNA. FIGS. 14J-14L: Sensograms for BSA (FIG. 14J), β-gal (FIG. 14K), and IgG (FIG. 14L) showing relative response (R.U.) at 10, 25, 50, 75, and 100 μM.
(§2) To explore PFNA-mediated changes in protein structure, dose-response circular dichroism (CD) studies were performed (FIG. 14A-14G). […] Remarkably, these structural changes endured even at sub-stoichiometric PFNA:protein ratios (see 0.001 mM PFNA in […]; protein concentration was constant at 0.01 mM).
On the technique in general: Circular dichroism is the unequal absorption of left and right circularly polarised light.

For series [2], the system named is tested proteins. Description: Induction of non-native protein secondary structure. How it is done:
as §2
Prior studies have shown ≥15 vol % of TFE in water, which represents a 2M total concentration, was required to induce protein structural transitions. […] In addition, PFNA appeared to favor modulation of […] structures over α-helices, which can be interpreted by monitoring changes in both ellipticity at 216 nm (FIG. 14H) and percentage of secondary structural motifs (FIG. 14I) relative to the native protein. […] The dose-dependent reduction in the signal after analyte injection may have been due to conformational change of the target protein, as has been observed in prior studies.

For series [3], the system named is β-gal. As to the kind of experiment: Surface plasmon resonance, β-Gal. Format: binding. Particulars: after reference correction.
Source text: as §1
(§3) To test this assertion, PFNA binding to three exemplary proteins, BSA, β-Gal and IgG, was studied via isothermal titration calorimetry (ITC) and surface plasmon resonance (SPR) techniques. […] SPR analysis yielded similar results, with sensorgrams (FIGS. 14J-14L) that diverged from a simple 1:1 ligand-protein model. […]

The test system of series [4] is IgG. Description: Surface plasmon resonance, IgG. Format: binding, rabbit. Particulars: after reference correction.
Source text: as §1, §3

Series [5] has as its system A549 cells. Description: Protein uptake in A549 cells, Cy5-labeled BSA. It counts as cell-based, human. Particulars: PFNA. How it is done: FIGS. 18A-18B depict the uptake of Cy5-labeled BSA in human lung A549 cells after 2 and 24 hours of incubation in the absence/presence of PFNA. Results are shown in relative fluorescence units (RFU).
(§4) Multiplexed in vitro assays were employed to probe the influence of PFNA interactions on protein uptake and transport in cells. A549 and PC9 human lung cells were prioritized for these assays given that pulmonary tissue is a primary site of perfluoroalkyl bioaccumulation in humans (Reference: 63). Before initiating experiments, cellular toxicity assays established a maximum tolerated dose of PFNA to avoid confounding protein transport experiments with substantive cell death. Protein uptake was then studied using green fluorescent protein (GFP) and bovine serum albumin (BSACy5) as model biologics that employ non-specific pinocytic mechanisms for cellular entry.

Series [6] in a line: Protein activity after elevated temperature exposure (Example 4). Format: physicochemical. The procedure:
A group of enzyme proteins, β-Gal and Trypsin was chosen for this study. β-Gal and Trypsin were diluted in PBS or dispersed in PFOc at 1 μM and 10 μM, respectively. Next, a subset of samples was subjected to elevated temperature condition (90 °C) well beyond their native denaturation temperature for 30 minutes. After that, samples were allowed to cool down to room temperature before retrieval. For PFOc samples, proteins were extracted into PBS before performing the ensuing assays. To determine the enzymatic activity, an equal volume of protein samples was added to their substrates dissolved in PBS (4 mg/mL ONPG for β-Gal or 1 mg/mL BAEE for Trypsin). After incubation, ONPG and BAEE substrate conversions were measured by taking absorbance using a microplate reader at 420 nm or 400 nm, respectively. In case of intrinsic fluorescence, GFP was similarly prepared, and heat treated. After GFP samples were retrieved, fluorescent intensity was taken at λex=490 nm, λem=520 nm. The change in protein activity was presented by normalizing to spectrometric readings of each protein dissolved in PBS without being subjected to heat (room temperature). […] This supports the assertion that the fluorous coating and solvent environments, together, serve to constrain the conformational flexibility of the dispersed protein and, as a result, increase its melting temperature.

Series [7] has as its system cells. Description: Cellular uptake of PFNA-complexed proteins. It counts as cell-based.
Source text: as §4

The subject of series [8] is proteinase K. As to the kind of experiment: β-Gal activity after proteinase K exposure. Format: physicochemical. Particulars: 24 hours. The text has this: FIGS. 54A-54C depict the relative activity of the β-Gal protein dispersed in PBS or PFOc solvents without and with contamination by (FIG. 54A) proteinase K, (FIG. 54B) bleach or (FIG. 54C) hydrochloric acid. Data shown as average±s.d. of n=3 technical replicates. Statistical significance between conditions is indicated by a line using unpaired Student's t-test with n.s.=not significant, * p<0.05, ** p<0.01, and *** p<0.001.
An equal volumetric amount of β-Gal and proteinase K stocks were mixed and incubated together for 24 hours. The remaining active β-Gal was evaluated by adding ONPG substrate diluted in PBS at 4 mg/mL directly to the samples. This action eluted β-Gal from PFOc solvent and immediately starting ONPG conversion without further β-Gal disruption from residue proteinase K that was also eluted into aqueous buffer. The enzymatic activity was calculated from measuring absorbance (420 nm) after 15-minute conversion. […] A likely explanation for this is that the proteinase K protein is also coated by the PD-7 additive after addition to the PFOc solvent, leading to its segregation from the co-dispersed β-Gal protein.

On to `O=C(O)C(F)(F)C(F)(F)C(F)(F)C(F)(F)C(F)(F)C(F)(F)C(F)(F)C(F)(F)F` [Compound 7, perfluoronanonic acid], for which the “CD structural change, β-gal” value in series [1] is reported as “marked increase in β-sheet content”. Besides, the “concentration sufficient to induce ordered non-native structure” value in series [2] (many of the tested proteins) came out at 0.001 mM. Further, the “increase in potency in inducing non-native protein secondary structure relative to TFE” value in series [2] (relative to trifluoroethanol) is 10^6. Also, the SPR response entry in series [3] and in series [4] was “negative responses” throughout. In series [5], the BSA internalization entry is “less affected”. For the same molecule, the “retention of bioactivity / function at elevated temperature” value in series [6] (proteins dispersed into fluorous solvent using the dispersant, up to 90 °C) was “structured and functional at temperatures as high as 90 °C”. For the same molecule, the “cellular uptake of complexed proteins” value in series [7] is “significantly enhanced”.

On to “β-Gal: β-Galactosidase (β-Gal), dissolved in PBS/saline or dispersed in PFOc”, for which, in series [6] (PFOc dispersed, 90 °C for 30 minutes), the “change in activity after heating” value was “no statistically significant change in activity”. Besides, the “loss of bioactivity after heating” value in series [6] (saline, 90 °C for 30 minutes) is on record as more than 90%. For the same molecule, the “β-Gal activity in presence of proteinase K” value in series [8] (PFOc formulation) was “no statistically significant change in activity”; in series [8] (dissolved in PBS), “completely inactivated”.
